“And” between values parts separate entries of the source, which are not always exact repeats. Equal values may be shown once.
How the values were obtained:
[1] = system: plasmin; design: method as in PMID 29911328; settings: in vitro; cited from earlier work
[2] = Pharmacokinetics after intravenous administration (plasma, LC-MS/MS, PKSolver two-compartment model); type: in vivo, Sprague–Dawley rats; settings: rat, i.v. 1 mg/kg
Experimental: To evaluate the pharmacokinetic properties of UAMC-00050, it was administered in male Sprague–Dawley rats (200–225 g) either colonically (5 mg/kg, in a volume of 200 µL 5% DMSO solution) or intravenously (1 mg/kg in a volume of 200 µL 5% DMSO solution). Plasma samples were collected after 5, 15, 30, 45, 60, 90, 120, and 180 min via the tail vein and stored at −80 °C until analysis.
Sample preparation and analysis of plasma samples consisted of protein precipitation followed by direct injection in a liquid chromatography–tandem mass spectrometry (LC-MS/MS) instrument. Briefly, 100 µL of plasma was spiked with 20 µL of nordazepam-D5 used as internal standard for quantification (yielding in a final concentration of 485 ng/mL) and afterwards 180 µL of acetonitrile was added to precipitate proteins. Subsequently, the samples were vortexed for 2.5 min at 2000× g and centrifuged for 5 min at 10,000× g. In a next step, 100 µL of the supernatant was transferred to a 0.20 µm centrifugal filter to remove remaining particles. After centrifugation for 5 min at 10,000× g, the remaining filtrate was transferred to an autosampler vial ready to be analyzed with LC-MS/MS. A seven-level point calibration curve with final concentrations ranging between 5 and 1000 ng/mL and a curve weighting factor of 1/x^2 was prepared in blank mouse plasma using different working solution standards of UAMC-00050 and a fixed amount of internal standard. The lower limit of quantification of the method was 5 ng/mL.
A gradient was applied as follows: 0–0.5 min: 5% B; 0.5–10 min 5–100% B; 10–12 min 100% B; and 12–12.1 min 5% B. The total run time was 18 min and the injection volume was set to 5 µL. Detection and quantification of UAMC-00050 were performed with an Agilent 6410 triple quadrupole MS system with an electrospray interface (ESI) operating in positive ionization mode. The following source parameters were applied: gas temperature 350 °C, gas flow 10 L/min, nebulizer 35 psi, and capillary voltage 4000 V. Compound-dependent MS parameters are summarized in Table 1. The most abundant transition of UAMC-00050 was used as quantifier and the other transitions were used for confirmation (qualifiers). For compound confirmation, the following criteria were used: the quantifier/qualifier ratio should fall within ±15% of the ratio observed in calibrators and the relative retention time should fall within 2.5% of the values observed in the calibrators.
All data are presented as mean ± SEM or as median (IQR). Pharmacokinetic analysis and modeling of the plasma concentration–time data was performed using PKSolver. Other statistical analysis and data visualization processes were performed using R software (version 4.0.3) and GraphPad Prism (version 7.04). The nominal significance level was 0.05 for all tests. The development of body weight, VMR results, and colonic compliance were assessed with generalized estimating equations (GEE) using an unstructured working correlation matrix, followed by Fisher’s least significant difference (LSD) post hoc test on prespecified pairwise comparisons of interest. Inflammatory parameters were analyzed using two-way analysis of variance (ANOVA), followed by Student–Newman–Keuls (SNK) post hoc testing when applicable. To evaluate the differences in proteolytic activities between control, post-colitis, treated, and untreated rats, a two-way ANOVA was conducted. Main effects were tested on split files with a Mann–Whitney U test with Bonferroni correction. To assess correlations between specific fecal or colonic proteolytic activities and inflammatory parameters, the pairwise comparisons of interest were determined a priori. Spearman’s rank order correlation coefficient was used and the Holm–Bonferroni method was applied to correct for multiplicity.

**Q.** Which inhibition of plasmin [1] does the source give for `CC(=O)Nc1ccc(OP(=O)(Oc2ccc(NC(C)=O)cc2)C(Cc2ccc(N=C(N)N)cc2)NC(=O)OCc2ccccc2)cc1.Cl` (stereo not shown) [UAMC-00050] here?
**A.** The inhibition of plasmin was “efficiently inhibits”.

**Q.** What about the k12 ([2]; distribution to the peripheral compartment) of the same compound?
**A.** Its k12 is 0.028 min⁻¹.

**Q.** And the k21 ([2]; redistribution from peripheral to central compartment)?
**A.** Its k21 is 0.014 min⁻¹.

**Q.** And the A ([2]; two-compartment model)?
**A.** The A was 500.7 ng/mL.

**Q.** What about the “AUC 0-inf” value ([2]; two-compartment model) of the same compound?
**A.** The value was 5915 ng·min/mL.

**Q.** What about the “AUC 0-t” value ([2]; two-compartment model) of the same compound?
**A.** Its value is 5422 ng·min/mL.

**Q.** And the AUMC ([2]; two-compartment model)?
**A.** Its AUMC is 200,489 ng/mL*min2.

**Q.** And the Alpha ([2]; two-compartment model)?
**A.** Its Alpha is 0.119 min⁻¹.

**Q.** And the B ([2]; two-compartment model)?
**A.** Its B is 17.9 ng/mL.

**Q.** And the Beta ([2]; two-compartment model)?
**A.** The Beta was 0.010 min⁻¹.

**Q.** What about the C0 ([2]; two-compartment model) of the same compound?
**A.** The C0 was 518.7 ng/mL.

**Q.** What about the CL ([2]; two-compartment model) of the same compound?
**A.** The CL was 0.0005072 (mg)/(ng/mL)/min.

**Q.** And the CL2 ([2]; two-compartment model)?
**A.** Its CL2 is 0.0001621 (mg)/(ng/mL)/min.

**Q.** And the MRT ([2]; two-compartment model)?
**A.** The MRT was 33.9 min.

**Q.** What about the V ([2]; two-compartment model) of the same compound?
**A.** The V was 0.006 (mg)/(ng/mL).

**Q.** What about the V2 ([2]; two-compartment model) of the same compound?
**A.** The V2 was 0.011 (mg)/(ng/mL).

**Q.** What about the Vss ([2]; two-compartment model) of the same compound?
**A.** The Vss was 0.017 mg/(ng/mL).

**Q.** What about the k10 ([2]; two-compartment model) of the same compound?
**A.** The k10 was 0.087 min⁻¹.

**Q.** What about the k12 ([2]; two-compartment model) of the same compound?
**A.** The k12 was 0.028 min⁻¹.

**Q.** What about the k21 ([2]; two-compartment model) of the same compound?
**A.** Its k21 is 0.014 min⁻¹.

**Q.** What about the t1/2Beta ([2]; two-compartment model) of the same compound?
**A.** Its t1/2Beta is 66.5 min.

**Q.** And the t1/2Alpha ([2]; two-compartment model, 1 mg/kg)?
**A.** Its t1/2Alpha is 5.800 min and 5.8 min.

Source: paper PMC8229129, “Local Colonic Administration of a Serine Protease Inhibitor Improves Post-Inflammatory Visceral Hypersensitivity in Rats” (Pharmaceutics, 2021)
